Reference: US9661855B2, “Cyclic aza-sila compounds as insect repellants” (COUNCIL OF SCIENTIFIC & INDUSTRIAL RESEARCH, priority 2012, dated 2017)
Read-outs that look alike come from different tables or passages of the source.

What was measured:
[1] = system: Ae. aegypti females mosquitoes; experiment: Mosquito repellence test, protection period (time until the first bite), treated muslin screen over human volunteer's hand; type: in vivo; details: 27±1° C.; for Protection period in hrs @ 0.25 mg/cm^2: 0.25 mg/cm^2 on muslin cloth screen; for Protection period in hrs @ 0.50 mg/cm^2: 0.50 mg/cm^2 on muslin cloth screen
Method: Mosquito repellence activity was assessed on the basis of protection period (hr) offered by various analogues of DEET against Mosquito bites. The protection period was measured on the basis of the concept” time until the first bite” pioneered by Granette (Comparison of mosquito repellence test under laboratory and field conditions. Granett, P. Proc Ann Meet NJ Mosq Assoc, 1938, vol. 25, 51). Repellence tests were carried out against 3-5 days old, blood starved but sucrose fed (0.5M solution), Ae. aegypti females mosquitoes, drawn from well-established laboratory colony maintained at 27±1° C. Temperature and 70±5% Relative humidity. The light intensity was regulated at 300-500 lux for testing against laboratory, colonized Ae. aegypti, a day biting mosquito. Human volunteer's hand covered with polythene disposable gloves was introduced in the cage containing about 200 hungry mosquitoes. Mosquitoes were allowed to bite on the back of the hand through muslin screen stuck over a small window (2 cm×2 cm) cut out in the polythene bag. Various analogues of DEET were loaded on the muslin cloth screen instead of direct skin application so as to avoid the potential risk involved in the evaluation of natural products of unknown mammalian toxicity. All the test solutions were made in Analar grade Acetone The muslin cloth screen was first treated with the analogue taking two doses @0.25 mg/cm2 and 0.5 mg/cm2 and the solvent was evaporated before use. Control muslin screen was treated with solvent alone. After introduction of the hand covered with the polythene glove with the treated muslin screen into the mosquito cage, number of mosquito bites received in subsequent 5 minutes was counted. In the event of no bites in the initial 5 minutes exposure, the test hand was exposed repeatedly after every consecutive ½ hr for 5 minutes test till the time a confirmed bite was received. Number of hours before the receipt of a confirmed bite (Techniques for the evaluation of insect repellents. A critical review (Schreck, C. E, Ann Rev Entomol, 1977, vol 22, 101) represented the protection period offered by the test compound. In control rate of mosquito bite was 10-12 bites/min. All the tests were carried out at 27±1° C. temperature between 9.00-17.00 hrs.

[2] = system: insect bites; details: cited from earlier work
[3] = system: Aedesaegypti (L.); details: against Aedesaegypti (L.); topical, human volunteers; cited from earlier work
[4] = system: Anopheles stephensi Liston; details: against Anopheles stephensi Liston; topical, human volunteers; cited from earlier work

melting point	Structure (SMILES)	Protection period in hrs @ 0.25 mg/cm^2 [1]	Protection period in hrs @ 0.50 mg/cm^2 [1]	also measured
–	C[Si]1(C)CCN(C(=O)c2cnccn2)CC1	2.14 ± 0.76 h	4.22 ± 0.69 h	–
–	Cc1ccccc1C(=O)N1CC[Si](C)(C)CC1	4.09 ± 0.053 h	5.41 ± 0.135 h	–
–	CCN(CC)C(=O)c1cccc(C)c1 [DEET, N,N-Diethyl-meta-toluamide]	–	–	hours of protection ([2]; 100% DEET): up to 12 hours; hours of protection ([2]; lower concentrations of 20%-40% DEET): 3 to 8 h
–	Cc1cccc(C(=O)N2CC[Si](C)(C)CC2)c1 [drawing 33]	1.47 ± 0.13 h	2.15 ± 0.072 h	–
–	CCN(CC)C(=O)Cc1cccc(Br)c1 [N,N-diethyl(3-bromophenyl) acetamide]	–	–	biting-deterrent activities compared with DEET [3]: superior to DEET; biting-deterrent activities compared with DEET [4]: superior to DEET
101 to 103 °C	C[Si]1(C)CCN(C(=O)c2ccccn2)CC1	–	–	–
–	CCN(CC)C(=O)c1cccc(C(F)(F)F)c1 [N,N,diethyl[3-(trifluoromethyl)]benzamide]	–	–	biting-deterrent activities compared with DEET [3]: superior to DEET; biting-deterrent activities compared with DEET [4]: superior to DEET
–	CCCCCCCCCCC(=O)N1CC[Si](C)(C)CC1	2.14 ± 0.065 h	5.05 ± 0.207 h	–
79 to 81 °C	C[Si]1(C)CCN(C(=O)c2cc(Cl)ccc2Cl)CC1	–	–	–
65 to 67 °C	C[Si]1(C)CCN(C(=O)c2ccccc2)CC1	–	–	–
–	CCN(CC)C(=O)Cc1cccc(C(F)(F)F)c1 [N,N-diethyl[(alpha,alpha,alpha-trifluoro-m-tolyl)]acetamide]	–	–	biting-deterrent activities compared with DEET [3]: superior to DEET; biting-deterrent activities compared with DEET [4]: superior to DEET
–	Cc1ccc(C(=O)N2CC[Si](C)(C)CC2)cc1	3.08 ± 0.056 h	4.16 ± 0.067 h	–

Structure (SMILES)	melting point	Protection period in hrs @ 0.25 mg/cm^2 [1]	Protection period in hrs @ 0.50 mg/cm^2 [1]	also measured
Cc1cccc(C(=O)N2CC[Si](C)(C)CC2)c1	65 to 68 °C	–	–	–
